Measurements: patent US9901592B2 (priority 2008, dated 2018)
Values after ≈ are worked out from the molar mass of the structure shown. Where two headings read alike, the source gives them in different places.

How the values were obtained:
Type in all cases: cell-based
[1] = test system: S. pyogenes
[2] = test system: S. pneumoniae; assay: microbe, parasite or virus in culture; conditions: for MIC: Streptococcus pneumoniae
[3] = test system: S. pneumoniae

`CCC[C@@H]1C[C@@H](C(=O)N[C@@H]([C@H]2O[C@H](SC)[C@H](O)[C@@H](O)[C@H]2O)[C@H](C)Cl)N(C)C1` [CLN, clindamycin] was tested, and the “single step mutation frequency” value ([1]; strain 237 Macrolide-R [L4 mutation], 2 × MIC) was <1.0 × 10^−10, the “single step mutation frequency” value ([1]; strain 237 Macrolide-R [L4 mutation], 4 × MIC) was <1.0 × 10^−10 and the “single step mutation frequency” value ([1]; strain 237 Macrolide-R [L4 mutation], 8 × MIC) was <1.0 × 10^−10. For the same molecule, the “single step mutation frequency” value ([1]; strain 2011 Macrolide-R [mef(A)], 2 × MIC) was <1.0 × 10^−10, the “single step mutation frequency” value ([1]; strain 2011 Macrolide-R [mef(A)], 4 × MIC) was <1.0 × 10^−10 and the “single step mutation frequency” value ([1]; strain 2011 Macrolide-R [mef(A)], 8 × MIC) was <1.0 × 10^−10. For the same molecule, the “single step mutation frequency” value ([1]; strain 2094 Macrolide-R [erm(A)], 2 × MIC) was 2.1 × 10^−7, the “single step mutation frequency” value ([1]; strain 2094 Macrolide-R [erm(A)], 4 × MIC) was 1.3 × 10^−7 and the “single step mutation frequency” value ([1]; strain 2094 Macrolide-R [erm(A)], 8 × MIC) was 1.1 × 10^−7. The “single step mutation frequency” value ([1]; strain 2132 Macrolide-S, 2 × MIC) was <7.7 × 10^−11, the “single step mutation frequency” value ([1]; strain 2132 Macrolide-S, 4 × MIC) was <7.7 × 10^−11 and the “single step mutation frequency” value ([1]; strain 2132 Macrolide-S, 8 × MIC) was <7.7 × 10^−11. For the same molecule, the “strains with resistant clones / strains tested” value ([2]; S. pneumoniae) was 2/5, the MIC ([2]; read-out: Initial MIC, strain 24 Macrolide-R [erm(B)], parent) was over 64 µg/mL and the MIC ([2]; read-out: Initial MIC, strain 1076 Macrolide-R [erm(B)&mef(A)], parent) was 64 µg/mL (≈ 151 µM). It also gave an MIC ([2]; read-out: Initial MIC, strain 1077 Macrolide-S, parent) of 0.016 µg/mL (≈ 0.0376 µM), an MIC ([2]; read-out: Initial MIC, strain 1635 Macrolide-R [erm(A)], parent) of 0.06 µg/mL (≈ 0.141 µM) and an MIC ([2]; read-out: Initial MIC, strain 2686 Macrolide-R [L4 mutation], parent) of 0.03 µg/mL (≈ 0.0706 µM). The MIC ([2]; read-out: Initial MIC, strain 3009 Macrolide-R [23SrRNA mutation], parent) was 1 µg/mL (≈ 2.35 µM), the MIC ([2]; read-out: Initial MIC, strain 3665 Macrolide-R [mef(A)], parent) was 0.016 µg/mL (≈ 0.0376 µM) and the MIC ([2]; read-out: Initial MIC, strain 7127 Macrolide-S [S20N in L4, A105V in L22], parent) was 0.03 µg/mL (≈ 0.0706 µM). It also gave an MIC ([2]; read-out: MIC of parents of resistant clones, S. pneumoniae (CEM-101: 7 strains)) of 0.03 to 0.06 µg/mL, an MIC ([2]; read-out: Parental MICs, S. pneumoniae, 8 strains with varying resistotypes) of 0.016 to 1 µg/mL (≈ 0.0376 to 2.35 µM) and an MIC ([2]; read-out: Selected Resistance MIC, strain 1077 Macrolide-S, after serial passages in the drug) of 4 µg/mL (≈ 9.41 µM). The MIC ([2]; read-out: Selected Resistance MIC, strain 1635 Macrolide-R [erm(A)], after serial passages in the drug) was over 64 µg/mL, the MIC ([2]; read-out: Selected Resistance MIC, strain 2686 Macrolide-R [L4 mutation], after serial passages in the drug) was 0.125 µg/mL (≈ 0.294 µM) and the MIC ([2]; read-out: Selected Resistance MIC, strain 3009 Macrolide-R [23SrRNA mutation], after serial passages in the drug) was 2 µg/mL (≈ 4.71 µM). The MIC ([2]; read-out: Selected Resistance MIC, strain 3665 Macrolide-R [mef(A)], after serial passages in the drug) was 0.03 µg/mL (≈ 0.0706 µM), the “Retest MIC after 10 Antibiotic-free Subcultures” value ([2]; strain 24 Macrolide-R [erm(B)], clone selected with CEM-101) was over 64 µg/mL and the “Retest MIC after 10 Antibiotic-free Subcultures” value ([2]; strain 24 Macrolide-R [erm(B)], clone selected with TEL) was over 64 µg/mL. For the same molecule, the “Retest MIC after 10 Antibiotic-free Subcultures” value ([2]; strain 1076 Macrolide-R [erm(B)&mef(A)], clone selected with CEM-101) was over 64 µg/mL, the “Retest MIC after 10 Antibiotic-free Subcultures” value ([2]; strain 1076 Macrolide-R [erm(B)&mef(A)], clone selected with TEL) was over 64 µg/mL and the “Retest MIC after 10 Antibiotic-free Subcultures” value ([2]; strain 1077 Macrolide-S, clone selected with AZI) was 4 µg/mL. For the same molecule, the “Retest MIC after 10 Antibiotic-free Subcultures” value ([2]; strain 1077 Macrolide-S, clone selected with CEM-101) was 0.03 µg/mL, the “Retest MIC after 10 Antibiotic-free Subcultures” value ([2]; strain 1077 Macrolide-S, clone selected with CLN) was 8 µg/mL and the “Retest MIC after 10 Antibiotic-free Subcultures” value ([2]; strain 1077 Macrolide-S, clone selected with TEL) was 8 µg/mL. For the same molecule, the “Retest MIC after 10 Antibiotic-free Subcultures” value ([2]; strain 1635 Macrolide-R [erm(A)], clone selected with AZI) was 0.03 µg/mL, the “Retest MIC after 10 Antibiotic-free Subcultures” value ([2]; strain 1635 Macrolide-R [erm(A)], clone selected with CEM-101) was 0.03 µg/mL and the “Retest MIC after 10 Antibiotic-free Subcultures” value ([2]; strain 1635 Macrolide-R [erm(A)], clone selected with CLN) was over 64 µg/mL. The “Retest MIC after 10 Antibiotic-free Subcultures” value ([2]; strain 1635 Macrolide-R [erm(A)], clone selected with CLR) was 0.25 µg/mL, the “Retest MIC after 10 Antibiotic-free Subcultures” value ([2]; strain 2686 Macrolide-R [L4 mutation], clone selected with CEM-101) was 0.03 µg/mL and the “Retest MIC after 10 Antibiotic-free Subcultures” value ([2]; strain 2686 Macrolide-R [L4 mutation], clone selected with CLR) was 0.03 µg/mL. For the same molecule, the “Retest MIC after 10 Antibiotic-free Subcultures” value ([2]; strain 2686 Macrolide-R [L4 mutation], clone selected with TEL) was 0.03 µg/mL, the “Retest MIC after 10 Antibiotic-free Subcultures” value ([2]; strain 3009 Macrolide-R [23SrRNA mutation], clone selected with CEM-101) was 1 µg/mL and the “Retest MIC after 10 Antibiotic-free Subcultures” value ([2]; strain 3009 Macrolide-R [23SrRNA mutation], clone selected with CLR) was 1 µg/mL. For the same molecule, the “Retest MIC after 10 Antibiotic-free Subcultures” value ([2]; strain 3665 Macrolide-R [mef(A)], clone selected with CEM-101) was 0.03 µg/mL, the “Retest MIC after 10 Antibiotic-free Subcultures” value ([2]; strain 3665 Macrolide-R [mef(A)], clone selected with CLR) was 0.03 µg/mL and the “Retest MIC after 10 Antibiotic-free Subcultures” value ([2]; strain 3665 Macrolide-R [mef(A)], clone selected with TEL) was 0.03 µg/mL. For the same molecule, the “Retest MIC after 10 Antibiotic-free Subcultures” value ([2]; strain 7127 Macrolide-S [S20N in L4, A105V in L22], clone selected with AZI) was 0.06 µg/mL, the “Retest MIC after 10 Antibiotic-free Subcultures” value ([2]; strain 7127 Macrolide-S [S20N in L4, A105V in L22], clone selected with CEM-101) was 0.03 µg/mL and the “Retest MIC after 10 Antibiotic-free Subcultures” value ([2]; strain 7127 Macrolide-S [S20N in L4, A105V in L22], clone selected with CLN) was 0.25 µg/mL. The “Retest MIC after 10 Antibiotic-free Subcultures” value ([2]; strain 7127 Macrolide-S [S20N in L4, A105V in L22], clone selected with CLR) was 1 µg/mL, the “Retest MIC after 10 Antibiotic-free Subcultures” value ([2]; strain 7127 Macrolide-S [S20N in L4, A105V in L22], clone selected with TEL) was 0.03 µg/mL and the “single step mutation frequency” value ([3]; strain 1077 Macrolide-S, 2 × MIC) was <3.8 × 10^−10. The “single step mutation frequency” value ([3]; strain 1077 Macrolide-S, 4 × MIC) was <3.8 × 10^−10, the “single step mutation frequency” value ([3]; strain 1077 Macrolide-S, 8 × MIC) was <3.8 × 10^−10 and the “single step mutation frequency” value ([3]; strain 1635 Macrolide-R [erm(A)], 2 × MIC) was 7.3 × 10^−7. The “single step mutation frequency” value ([3]; strain 1635 Macrolide-R [erm(A)], 4 × MIC) was 5.5 × 10^−7, the “single step mutation frequency” value ([3]; strain 1635 Macrolide-R [erm(A)], 8 × MIC) was 5.6 × 10^−7 and the “single step mutation frequency” value ([3]; strain 2686 Macrolide-R [L4 mutation], 2 × MIC) was <1.2 × 10^−9. The “single step mutation frequency” value ([3]; strain 2686 Macrolide-R [L4 mutation], 4 × MIC) was <1.2 × 10^−9, the “single step mutation frequency” value ([3]; strain 2686 Macrolide-R [L4 mutation], 8 × MIC) was <1.2 × 10^−9 and the “single step mutation frequency” value ([3]; strain 3009 Macrolide-R [23S rRNA mutation], 2 × MIC) was 1.7 × 10^−4. The “single step mutation frequency” value ([3]; strain 3009 Macrolide-R [23S rRNA mutation], 4 × MIC) was 7.3 × 10^−9, the “single step mutation frequency” value ([3]; strain 3009 Macrolide-R [23S rRNA mutation], 8 × MIC) was <1.2 × 10^−10 and the “single step mutation frequency” value ([3]; strain 3665 Macrolide-R [mef(A)], 2 × MIC) was <2.4 × 10^−10. For the same molecule, the “single step mutation frequency” value ([3]; strain 3665 Macrolide-R [mef(A)], 4 × MIC) was <2.4 × 10^−10, the “single step mutation frequency” value ([3]; strain 3665 Macrolide-R [mef(A)], 8 × MIC) was <2.4 × 10^−10 and the “single step mutation frequency” value ([3]; strain 7127 Macrolide-S [S20N in L4, A105V in L22], 2 × MIC) was <2.9 × 10^−8. For the same molecule, the “single step mutation frequency” value ([3]; strain 7127 Macrolide-S [S20N in L4, A105V in L22], 4 × MIC) was <2.9 × 10^−8 and the “single step mutation frequency” value ([3]; strain 7127 Macrolide-S [S20N in L4, A105V in L22], 8 × MIC) was <2.9 × 10^−8.
